Measurements as given in patent US20230257372A1 (CHONG KUN DANG PHARMACEUTICAL CORP., priority 2020, published 2023).
Like-named read-outs stand apart in the source and are kept apart here.

What was measured:
human recombinant HDAC1 = target: T1, human recombinant HDAC1 (Homo sapiens, UniProt Q13547); experiment: HDAC1 enzyme activity inhibition (HDAC Fluorimetric Drug Discovery Kit); type: biochemical; conditions: read-out: HDAC1
T1 construct: purchased Enzo Life Science, Inc. BML-SE456
Procedure, shortened: (§1)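 Fluorescence from a Fluor de Lys developer step (30 minutes) reports residual deacetylation after a 60-minute, 30° C reaction of […] enzyme with 10 μM substrate and 5-fold compound dilutions.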

human recombinant HDAC6 = target: T2, human recombinant HDAC6 (Homo sapiens, UniProt Q9UBN7); experiment: HDAC6 enzyme activity inhibition (HDAC Fluorimetric Drug Discovery Kit); type: biochemical
T2 construct: purchased Calbiochem Inc. 382180
T2 sequence (Q9UBN7 1-1215): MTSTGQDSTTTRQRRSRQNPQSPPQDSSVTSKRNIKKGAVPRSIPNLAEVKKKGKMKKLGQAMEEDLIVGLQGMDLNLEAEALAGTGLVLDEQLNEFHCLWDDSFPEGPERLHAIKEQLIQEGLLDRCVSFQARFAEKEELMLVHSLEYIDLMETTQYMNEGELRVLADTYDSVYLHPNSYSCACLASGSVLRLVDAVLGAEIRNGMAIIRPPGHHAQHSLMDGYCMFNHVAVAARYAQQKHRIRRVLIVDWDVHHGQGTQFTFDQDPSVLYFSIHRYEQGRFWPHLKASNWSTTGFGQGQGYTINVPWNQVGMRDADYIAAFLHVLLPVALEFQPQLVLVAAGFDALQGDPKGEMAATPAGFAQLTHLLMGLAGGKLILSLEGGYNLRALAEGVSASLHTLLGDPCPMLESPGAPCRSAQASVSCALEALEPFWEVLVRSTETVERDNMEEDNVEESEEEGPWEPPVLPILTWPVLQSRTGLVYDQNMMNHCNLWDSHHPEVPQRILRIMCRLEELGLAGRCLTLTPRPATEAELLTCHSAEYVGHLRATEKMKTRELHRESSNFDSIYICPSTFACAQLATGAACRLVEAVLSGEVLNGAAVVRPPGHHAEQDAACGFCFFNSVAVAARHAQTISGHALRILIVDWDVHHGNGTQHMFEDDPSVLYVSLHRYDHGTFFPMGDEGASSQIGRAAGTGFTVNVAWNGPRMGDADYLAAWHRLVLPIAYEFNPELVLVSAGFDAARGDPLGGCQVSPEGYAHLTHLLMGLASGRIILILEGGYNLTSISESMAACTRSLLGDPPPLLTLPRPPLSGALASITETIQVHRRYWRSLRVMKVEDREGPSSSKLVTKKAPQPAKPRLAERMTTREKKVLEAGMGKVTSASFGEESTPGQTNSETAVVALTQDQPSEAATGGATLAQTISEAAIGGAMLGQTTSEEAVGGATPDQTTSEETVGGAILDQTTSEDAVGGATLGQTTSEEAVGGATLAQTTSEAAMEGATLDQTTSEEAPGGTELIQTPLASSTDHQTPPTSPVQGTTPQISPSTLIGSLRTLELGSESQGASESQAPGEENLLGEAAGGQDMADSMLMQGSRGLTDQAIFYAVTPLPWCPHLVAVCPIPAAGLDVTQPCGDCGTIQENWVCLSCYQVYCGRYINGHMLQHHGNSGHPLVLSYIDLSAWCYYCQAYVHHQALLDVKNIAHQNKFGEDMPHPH
Procedure, shortened: as §1

[1] = human recombinant HDAC1, IC50 calculated with GraphPad Prism
[2] = human recombinant HDAC6, IC50 calculated with GraphPad Prism
[3] = human recombinant HDAC1, Fluor de Lys substrate, 30° C. 60 minutes
[4] = human recombinant HDAC6, same protocol as HDAC1

T1 sequence (Q13547 whole entry): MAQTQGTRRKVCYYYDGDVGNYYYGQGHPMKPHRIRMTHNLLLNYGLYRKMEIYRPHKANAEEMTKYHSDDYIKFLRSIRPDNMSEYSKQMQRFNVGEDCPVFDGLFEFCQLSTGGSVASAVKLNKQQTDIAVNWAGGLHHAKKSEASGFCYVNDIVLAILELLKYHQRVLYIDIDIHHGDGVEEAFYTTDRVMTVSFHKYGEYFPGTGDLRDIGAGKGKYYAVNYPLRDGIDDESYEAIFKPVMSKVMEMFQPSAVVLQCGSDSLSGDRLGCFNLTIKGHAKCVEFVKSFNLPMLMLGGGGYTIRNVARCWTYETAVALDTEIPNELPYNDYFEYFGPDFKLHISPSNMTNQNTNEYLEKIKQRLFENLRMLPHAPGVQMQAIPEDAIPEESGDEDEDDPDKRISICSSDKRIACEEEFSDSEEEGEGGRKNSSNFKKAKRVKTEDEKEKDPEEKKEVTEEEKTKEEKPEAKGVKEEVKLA

Compound | IC50 (human recombinant HDAC1; [1]) | HDAC6 selectivity (fold) (human recombinant HDAC6; HDAC1 IC50 / HDAC6 IC50) | IC50 (human recombinant HDAC6; [2]) | IC50 (human recombinant HDAC1; [3]) | HDAC6 selectivity (fold) (human recombinant HDAC6; HDAC6 over HDAC1) | IC50 (human recombinant HDAC6; [4])
Fc1cc(-c2nnc(C(F)F)o2)ccc1Cn1cc(-c2ccc(CN3CCOCC3)cc2)nn1 [Compound 4471, 4-(4-(1-(4-(5-(difluoromethyl)-1,3,4-oxadiazol-2-yl)-2-fluorobenzyl)-1H-1,2,3-triazol-4-yl)benzyl)morpholine] | > 50000 nM | 1116 fold | 44.8 nM |  |  | 
FC(F)c1nnc(-c2ccc(Cn3cc(-c4cccc(C5CN(C6CCC6)C5)c4)nn3)nc2)o1 [Compound 4504, 2-(6-((4-(3-(1-cyclobutylazetidin-3-yl)phenyl)-1H-1,2,3-triazol-1-yl)methyl)pyridin-3-yl)-5-(difluoromethyl)-1,3,4-oxadiazole] |  |  |  | > 50000 nM | 3703 fold | 13.5 nM
CC(C)(C)OC(=O)NC1(C(=O)Nc2cccc(-c3cn(Cc4ccc(-c5nnc(C(F)F)o5)cn4)nn3)c2)CCC1 [Compound 4496, tert-butyl (1-((3-(1-((5-(5-(difluoromethyl)-1,3,4-oxadiazol-2-yl)pyridin-2-yl)methyl)-1H-1,2,3-triazol-4-yl)phenyl)carbamoyl)cyclobutyl)carbamate] | > 50000 nM | 3355 fold | 14.9 nM |  |  | 
Fc1ccc(-c2cn(Cc3ccc(-c4nnc(C(F)F)o4)cc3)nn2)cc1N1C[C@@H]2C[C@H]1CN2 [Compound 4398, 2-(4-((4-(3-((1S,4S)-2,5-diazabicyclo[2.2.1]heptan-2-yl)-4-fluorophenyl)-1H-1,2,3-triazol-1-yl)methyl)phenyl)-5-(difluoromethyl)-1,3,4-oxadiazole] | > 50000 nM | 988 fold | 50.6 nM |  |  | 
CN1CCc2cc(-c3cn(Cc4ccc(-c5nnc(C(F)F)o5)cc4F)nn3)ccc2C1 [Compound 4358, 2-(difluoromethyl)-5-(3-fluoro-4-((4-(2-methyl-1,2,3,4-tetrahydroisoquinolin-6-yl)-1H-1,2,3-triazol-1-yl)methyl)phenyl)-1,3,4-oxadiazole] | > 50000 nM | 1515 fold | 33 nM |  |  | 
FC(F)c1nnc(-c2ccc(Cn3cc(C4(F)CCOC4)nn3)nc2)o1 (stereo not drawn) [Compound 4281, 2-(difluoromethyl)-5-(6-((4-(3-fluorotetrahydrofuran-3-yl)-1H-1,2,3-triazol-1-yl)methyl)pyridin-3-yl)-1,3,4-oxadiazole] | > 50000 nM | 412 fold | 121 nM |  |  | 
FC(F)c1nnc(-c2ccc(Cn3cc(-c4ccc(-n5ccnc5)cc4)nn3)nc2)o1 [Compound 4284, 2-(6-((4-(4-(1H-imidazol-1-yl)phenyl)-1H-1,2,3-triazol-1-yl)methyl)pyridin-3-yl)-5-(difluoromethyl)-1,3,4-oxadiazole] | > 50000 nM | 1915 fold | 26.1 nM |  |  | 
FC(F)c1nnc(-c2ccc(Cn3cc(-c4ccc(CNC5CCC5)cc4)nn3)nc2)o1 [Compound 4565, N-(4-(1-((5-(5-(difluoromethyl)-1,3,4-oxadiazol-2-yl)pyridin-2-yl)methyl)-1H-1,2,3-triazol-4-yl)benzyl)cyclobutanamine] |  |  |  | > 50000 nM | 6024 fold | 8.3 nM
CN1CCN(Cc2ccc(-c3cn(Cc4ccc(-c5nnc(C(F)F)o5)cc4F)nn3)cc2)CC1 [Compound 4473, 2-(difluoromethyl)-5-(3-fluoro-4-((4-(4-((4-methylpiperazin-1-yl)methyl)phenyl)-1H-1,2,3-triazol-1-yl)methyl)phenyl)-1,3,4-oxadiazole] | > 50000 nM | 1253 fold | 39.9 nM |  |  | 
FC(F)c1nnc(-c2ccc(Cn3cc(-c4ccc5c(c4)CN(C4COC4)C5)nn3)nc2)o1 [Compound 4543, 2-(difluoromethyl)-5-(6-((4-(2-(oxetan-3-yl)isoindolin-5-yl)-1H-1,2,3-triazol-1-yl)methyl)pyridin-3-yl)-1,3,4-oxadiazole] |  |  |  | > 50000 nM | 1326 fold | 37.7 nM
FC(F)c1nnc(-c2ccc(Cn3cc(-c4ccc5cn[nH]c5c4)nn3)nc2)o1 [Compound 4340, 2-(6-((4-(1H-indazol-6-yl)-1H-1,2,3-triazol-1-yl)methyl)pyridin-3-yl)-5-(difluoromethyl)-1,3,4-oxadiazole] | > 50000 nM | 7575 fold | 6.6 nM |  |  | 
CC(C)(C)OC(=O)N1CC(c2cn(Cc3ccc(-c4nnc(C(F)F)o4)cn3)nn2)C1 [Compound 3926, Tert-butyl 3-(1-((5-(5-(difluoromethyl)-1,3,4-oxadiazol-2-yl)pyridin-2-yl)methyl)-1H-1,2,3-triazol-4-yl)azetidin-1-carboxylate] | > 50000 nM | 308 fold | 162 nM |  |  | 
FC(F)c1nnc(-c2ccc(Cn3cc(-c4ccc(CN5CC6(COC6)C5)cc4)nn3)cc2)o1 [Compound 4551, 6-(4-(1-(4-(5-(difluoromethyl)-1,3,4-oxadiazol-2-yl)benzyl)-1H-1,2,3-triazol-4-yl)benzyl)-2-oxa-6-azaspiro[3.3]heptane] |  |  |  | > 50000 nM | 4761 fold | 10.5 nM
FC(F)c1nnc(-c2ccc(Cn3cc(-c4ccc(Br)cn4)nn3)nc2)o1 [Compound 4180, 2-(6-((4-(5-bromopyridin-2-yl)-1H-1,2,3-triazol-1-yl)methyl)pyridin-3-yl)-5-(difluoromethyl)-1,3,4-oxadiazole] | > 50000 nM | 1506 fold | 33.2 nM |  |  | 
Fc1cc(-c2nnc(C(F)F)o2)ccc1Cn1cc(-c2cccc(Br)n2)nn1 [Compound 17263, 2-(4-((4-(6-bromopyridin-2-yl)-1H-1,2,3-triazol-1-yl)methyl)-3-fluorophenyl)-5-(difluoromethyl)-1,3,4-oxadiazole] |  |  |  | > 50000 nM | 1126 fold | 44.4 nM
Fc1cc(-c2nnc(C(F)F)o2)ccc1Cn1cc(-c2ccc(CN3CCC(F)(F)CC3)nc2)nn1 [Compound 17778, 2-(difluoromethyl)-5-(4-((4-(6-((4,4-difluoropiperidin-1-yl)methyl)pyridin-3-yl)-1H-1,2,3-triazol-1-yl)methyl)-3-fluorophenyl)-1,3,4-oxadiazole] |  |  |  | > 50000 nM | 603 fold | 82.9 nM
Cc1ccccc1-c1cn(Cc2ccc(-c3nnc(C(F)F)o3)cn2)nn1 [Compound 3860, 2-(difluoromethyl)-5-(6-((4-(o-tolyl)-1H-1,2,3-triazol-1-yl)methyl)pyridin-3-yl)-1,3,4-oxadiazole] | > 50000 nM | 391 fold | 128 nM |  |  | 
CN1CCN(c2cc(-c3cn(Cc4ccc(-c5nnc(C(F)F)o5)cc4)nn3)ccc2F)CC1 [Compound 4419, 2-(difluoromethyl)-5-(4-((4-(4-fluoro-3-(4-methylpiperazin-1-yl)phenyl)-1H-1,2,3-triazol-1-yl)methyl)phenyl)-1,3,4-oxadiazole] | > 50000 nM | 315 fold | 159 nM |  |  | 
FC(F)c1nnc(-c2ccc(Cn3cc(-c4cccc(N5C[C@@H]6C[C@H]5CN6C5CCC5)c4)nn3)cc2)o1 [Compound 4322] | > 50000 nM | 531 fold | 94 nM |  |  | 
O=C(O)c1cccc(-c2cn(Cc3ccc(-c4nnc(C(F)F)o4)cc3F)nn2)c1 [Compound 3660, 3-(1-(4-(5-(difluoromethyl)-1,3,4-oxadiazol-2-yl)-2-fluorobenzyl)-1H-1,2,3-triazol-4-yl)benzoic acid] | > 50000 nM | 175 fold | 285 nM |  |  | 
CCCCN1CC(c2cn(Cc3ccc(-c4nnc(C(F)F)o4)cn3)nn2)C1 [Compound 3953, 2-(6-((4-(1-butylazetidin-3-yl)-1H-1,2,3-triazol-1-yl)methyl)pyridin-3-yl)-5-(difluoromethyl)-1,3,4-oxadiazole] | > 50000 nM | 100 fold | 498 nM |  |  | 
